# In patent publication US8273718B2, “Composition for prevention or treatment of bone metabolism disorder comprising D-pinitol as an active ingredient” (Solgent Co., priority 2007, dated 2012):
# What was measured:
# [1] = system: bone marrow-derived osteoclast; assay: Differentiation of bone marrow-derived osteoclast, TRAP solution assay; assay type: cell-based, mouse
# Procedure: TRAP solution assay of TRAP positive cells were carried out according to the following method. Medium was removed, 100 μl of 10% formalin was added and incubated for 10 min at room temperature. After 100 μl of methanol/acetone was added, incubated for 1 min at room temperature, and then dried. TRAP substrate solution comprising a tablet of pNPP (p-nitrophenylphosphate) dissolved in 20 ml of TRAP buffer (pH 5.2) was added into and incubated for 20-30 min at 37° C. 100 μl of TRAP substrate solution was transferred to a new 96-well plate in which 50 μl of 1N NaOH was contained. Finally, OD (optical density) value was measured at 405 nm. To extract mouse bone marrow cells, thighbone and shinbone of male C57BL/6 mouse at 3-4 weeks of age were aseptically enucleated and their soft tissues were eliminated. Both end of long bone was cut in extracted bone tissues and then bone marrow cells were collected by injecting α-MEM/10% FBS into bone marrow cavity at one end using a 26G injection syringe. Collected bone marrow cells were subjected to 5 ng/ml of M-CSF and incubated for 16 hrs. Unattached cells on plate bottom were harvested. […] To determine inhibitory effect of D-pinitol on osteoclastogenesis, osteoclast derived from bone marrow primary cells was analyzed using TRAP solution assay.
# [2] = system: bone marrow-derived osteoclast; assay: Osteoclast differentiation in respective stages of osteoclastogenesis; assay type: cell-based, mouse; conditions: from 2 days after culture, not less than 25 mM
# Procedure: To examine the effect of D-pinitol on osteoclast at each stage of culturing, D-pinitol was added to the culture media of osteoclast with various concentrations. D-pinitol-treated osteoclast was separated at each cultured time and then amount of differentiated osteoclast was analyzed using TRAP solution assay. To analyze the effect of D-pinitol on respective stages of differentiation of bone marrow-derived osteoclast, the differentiation state of osteoclast, which has been cultured in the presence of various concentration of D-pinitol, was estimated in a time-dependent course. […] It could be also understood that D-pinitol affects in the cell-fusion stage of the osteoclastogenesis.
# Raw264.7 cells [3] = assay: Osteoclastogenesis of Raw264.7 cells, TRAP staining; assay type: cell-based
# Procedure: Raw264.7 cells were cultured in α-MEM (α-minimal essential medium) containing 10% FBS (fetal bovine serum). In the experiment of examining osteoclastogenesis, cells were adjusted to 2.0×10^3 cells/200 μl on 96-well plate and incubated with 200 ng/ml of sRANKL. TRAP (tartrate resistant acid phophatase) staining and TRAP solution assay were carried out at forth day after culturing cells for 3 days with treatment of D-pinitol at concentrations of 1, 3.5, 7, 12.5, 25 and 50 mM respectively. Cells were fixed for TRAP staining and TRAP solution assay. TARP positive multinuclear (more than 3 nuclei) cells were counted as an osteoclast-like cell. Cells were observed using Leica DM IRM microscope. For cytochemical staining of TRAP positive cell, medium was removed. After that, 100 μl of 10% formalin was added to cells and incubated for 10 min at room temperature. 100 μl of methanol/acetone was added and incubated for 1 min at room temperature. Cells were stained with 10 ml of TRAP buffer (Tris-HCl, pH 4.5, EDTA), naphthol AS phosphate (substrate, Sigma #N-4875) and 5 mg of Fast Red Violet dye (Sigma, F-1625). 1 mg of naphthol AS phosphate dissolved in […] of N, N-dimethyl formide (DMF, Sigma #319937) was used. The reaction was performed for 10-30 min and then red color was observed. Where red color is clearly observed, it was washed with flowing water and dried. […] Raw264.7 cell line was treated with 200 ng/ml of RankL for 4 days. […] To quantitate inhibitory activity of D-pinitol in osteoclastogenesis of Raw264.7 cells, multinucleate cell number was measured via TRAP staining according to various treatment concentration of D-pinitol. […] Therefore, it could be understood that D-pinitol was a substance to inhibit osteoclastogenesis of Raw264.7 cell. D-pinitol inhibited osteoclastogenesis almost 100% at a concentration of 50 mM.
# [4] = system: co-culture of osteoblast and bone marrow-derived osteoclast; assay: Osteoclastogenesis in co-culture of osteoblast and bone marrow cells, TRAP staining; assay type: cell-based, mouse
# Procedure: To prepare a primary osteoblast of mice, frontal bone and parietal bone of fetal mice at 1 day of age were aseptically enucleated. After washing enucleated bone tissue with PBS solution, it was subsequently treated with mixed-enzyme solution (0.2% collagenase and 0.1% dispase) 6 times at 20 min intervals. Cells having the property of osteoblast were harvested and then washed with culture solution. Washed cells were cultured in α-MEM containing 10% serum for 3 days and used as a primary osteoblast. Co-culture was carried out in a manner that 1.0×10^4 cells/200 μl of osteoblast and 1.0×10^5 cells of bone marrow cells were cultured on 96-well plate with vitamin D3 (10^−6M) and prostagrandin E2 (PGE2, 10^−8M) for 5 days. After culturing, TRAP staining was performed. Osteoblast was extracted from mouse skull and then co-cultured with hematopoietic stem cells of bone marrow in order to induce the differentiation of osteoclast. The effect of D-pinitol on osteoclastogenesis was investigated by treating cells with D-pinitol with a range of 0-50 mM during the differentiation-inducing process.
# Raw264.7 cells [5] = assay: Osteoclastogenesis of Raw264.7 cells, TRAP solution assay; assay type: cell-based; conditions: RankL
# Procedure: Raw264.7 cells were cultured in α-MEM (α-minimal essential medium) containing 10% FBS (fetal bovine serum). In the experiment of examining osteoclastogenesis, cells were adjusted to 2.0×10^3 cells/200 μl on 96-well plate and incubated with 200 ng/ml of sRANKL. TRAP (tartrate resistant acid phophatase) staining and TRAP solution assay were carried out at forth day after culturing cells for 3 days with treatment of D-pinitol at concentrations of 1, 3.5, 7, 12.5, 25 and 50 mM respectively. Cells were fixed for TRAP staining and TRAP solution assay. TARP positive multinuclear (more than 3 nuclei) cells were counted as an osteoclast-like cell. Cells were observed using Leica DM IRM microscope. TRAP solution assay of TRAP positive cells were carried out according to the following method. Medium was removed, 100 μl of 10% formalin was added and incubated for 10 min at room temperature. After 100 μl of methanol/acetone was added, incubated for 1 min at room temperature, and then dried. TRAP substrate solution comprising a tablet of pNPP (p-nitrophenylphosphate) dissolved in 20 ml of TRAP buffer (pH 5.2) was added into and incubated for 20-30 min at 37° C. 100 μl of TRAP substrate solution was transferred to a new 96-well plate in which 50 μl of 1N NaOH was contained. Finally, OD (optical density) value was measured at 405 nm. […]
# [6] = system: bone marrow-derived osteoclast; assay: Bone resorption-degradative potential of osteoclast on bone fragments (toluidine blue staining); assay type: cell-based, mouse
# Procedure: To examine the effect of D-pinitol on degradative potential of osteoclast in the bone resorption process, fragment of tooth bone was added in 96-well plate and then bone marrow cells were cultured until 1.0×10^5 cells/200 μl. For the differentiation of osteoclast, 50 ng/ml of M-CSF and 200 ng/ml of sRANKL were added. D-pinitol was added to the media in a concentration-dependent manner and incubated for 4 days. Where the differentiation of osteoclast was observed after completing the culture, cells were removed in bone fragment and observed in microscope via 1% toluidine blue staining. To investigate the effect of D-pinitol on the bone resorption-degradative potential of osteoclast, cells were treated with D-pinitol in the range of 0-50 mM during the differentiation into osteoclast on bone fragments which were obtained from human teeth.
# [7] = system: bone marrow-derived osteoclast; assay: Differentiation of bone marrow-derived osteoclast, TRAP staining; assay type: cell-based, mouse
# Procedure: For cytochemical staining of TRAP positive cell, medium was removed. After that, 100 μl of 10% formalin was added to cells and incubated for 10 min at room temperature. 100 μl of methanol/acetone was added and incubated for 1 min at room temperature. Cells were stained with 10 ml of TRAP buffer (Tris-HCl, pH 4.5, EDTA), naphthol AS phosphate (substrate, Sigma #N-4875) and 5 mg of Fast Red Violet dye (Sigma, F-1625). 1 mg of naphthol AS phosphate dissolved in […] of N, N-dimethyl formide (DMF, Sigma #319937) was used. The reaction was performed for 10-30 min and then red color was observed. Where red color is clearly observed, it was washed with flowing water and dried. […] To extract mouse bone marrow cells, thighbone and shinbone of male C57BL/6 mouse at 3-4 weeks of age were aseptically enucleated and their soft tissues were eliminated. Both end of long bone was cut in extracted bone tissues and then bone marrow cells were collected by injecting α-MEM/10% FBS into bone marrow cavity at one end using a 26G injection syringe. Collected bone marrow cells were subjected to 5 ng/ml of M-CSF and incubated for 16 hrs. Unattached cells on plate bottom were harvested. For the induction of the differentiation of bone marrow-derived osteoclast, bone marrow cells of 1.0×10^5 cells per well were cultured with α-MEM/10% FBS in the presence of 200 ng/ml of sRANKL and 50 ng/ml of M-CSF. D-pinitol was added to media at various concentrations during culture. Three experiments were carried out at each concentration and media were replaced at third day after grown in complete media containing sRANKL, M-CSF and D-pinitol. […] To investigate the effect of D-pinitol on the osteoclast differentiation from bone marrow-derived monocyte, hematopoietic stem cells were extracted from bone marrow and activated for 1 day by M-CSF (5 ng/ml), resulting in induction of the differentiation into mononuclear cells. […] To quantitate the effect of D-pinitol in osteoclatogenesis of bone marrow-derived monocyte, osteoclast cell number within sample was measured using TRAP staining. […]
# Raw264.7 cells [8] = assay: Cytotoxicity of D-pinitol on Raw264.7 cells (cell number count); assay type: cell-based; conditions: 0-50 mM, cell number counted for 3 days at 24 hrs intervals; up to maximum 50 mM
# Procedure: To verify the cytotoxicity of D-pinitol to Raw264.7 cell, Raw264.7 cells were grown on 96-well plate until 0.5×10^3 cells/200 μl. Cells were cultured for 3 days while treating with D-pinitol at concentrations of 1, 3.5, 7, 12.5, 25 and 50 mM respectively. Cell number increased during 3 days of culture was counted to determine the cytotoxicity of added compounds.
# The present inventors examined the cytotoxicity of D-pinitol at various concentrations. Influence of D-pinitol to cell proliferation was examined by treating Raw264.7 cells with various concentrations of D-pinitol. Osteoclast progenitor cell line, Raw264.7 cells were cultured and treated with D-pinitol in a range of 0-50 mM concentration. The number of survived cells was counted for 3 days at 24 hrs intervals.
# [9] = system: bone marrow-derived hematopoietic stem cells; assay: Cytotoxicity of D-pinitol on bone marrow hematopoietic stem cells (CCK8); assay type: cell-based, mouse
# Procedure: To investigate the cytotoxicity of D-pinitol to a bone marrow cell, bone marrow cells were adjusted to 1.0×10^5 cells/200 μl on 96-well plate and co-cultured with 50 ng/ml of M-CSF. Then, cultured cells were grown for 4 days while treating with D-pinitol at concentrations of 1, 3.5, 7, 12.5, 25 and 50 mM respectively. Cytotoxicity was measured using CCK8 kit (Cell Counting Kit-8, Dojindo, Japan). 10% CCK8 solution was added to culture solutions according to each culture time and incubated for 2 hrs at 37° C. After culturing, an absorbance was measured at 450 nm using Microplate reader (Bio-Rad).
# To extract mouse bone marrow cells, thighbone and shinbone of male C57BL/6 mouse at 3-4 weeks of age were aseptically enucleated and their soft tissues were eliminated. Both end of long bone was cut in extracted bone tissues and then bone marrow cells were collected by injecting α-MEM/10% FBS into bone marrow cavity at one end using a 26G injection syringe. Collected bone marrow cells were subjected to 5 ng/ml of M-CSF and incubated for 16 hrs. Unattached cells on plate bottom were harvested.
# The instant inventors examined the cytotoxicity of D-pinitol on hematopoietic stem cells. […] After that, the proliferation-induced cells were treated with D-pinitol at a range of 0-50 mM and the effect of D-pinitol on cell proliferation was determined by measuring CCK8 enzyme activity. […]
smiles,measurement,setting,value
COC1C(O)C(O)C(O)C(O)C1O [D-pinitol],inhibitory effect on differentiation of bone marrow-derived osteoclast,[1],also observed
same,differentiation of bone marrow-derived osteoclast,[2],remarkably inhibited
same,inhibition at 50000 µM,"Raw264.7 cells [3]; Mus musculus, RAW264.7, 50 mM, multinucleate cell count by TRAP staining",~100%
same,osteoclastogenesis (TRAP staining photographs),"Raw264.7 cells [3]; RankL 200 ng/ml, 4 days, increasing concentration up to 50 mM",significantly impaired
same,multinucleate cell number,"Raw264.7 cells [3]; RankL 200 ng/ml, increasing concentration of D-pinitol",significantly decreased
same,cell number of multinucleated osteoclast,"[4]; 0-50 mM, increasing concentration",significantly decreased
same,osteoclastogenesis,[4]; 50 mM,clearly inhibited
same,inhibitory activity in TRAP solution assay versus counting multinucleate cell number,Raw264.7 cells [5],relatively weaker
same,bone resorption-degradative potential of osteoclast,"[6]; 0-50 mM, increasing concentration, bone fragments from human teeth",remarkably decreased
same,bone resorption-degradative potential of osteoclast,[6]; not less than 25 mM,dramatically decreased
same,number of TRAP-stained osteoclast,"[7]; 0-50 mM, RankL 200 ng/ml and M-CSF 50 ng/ml, 4 days",decreased in proportion to the concentration
same,inhibition at 50000 µM,"[7]; Mus musculus, Osteoclast, 50 mM, bone marrow-derived monocyte, read-out: inhibition of osteoclastogenesis",~100%
same,concentration from which a remarkable decrease of multinucleate cell number was observed,[7]; TRAP staining count,25 mM
same,Raw264.7 cell cytotoxicity,Raw264.7 cells [8],not observed
same,effect on CCK8 activity,"[9]; 0-50 mM, M-CSF 50 ng/ml",no effect
same,influence on proliferation of hematopoietic stem cells,[9]; not more than 50 mM,no influence
